“And” between values parts separate entries of the source, which are not always exact repeats. Equal values may be shown once.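 Where inhibition never reached the appropriate level, the endpoint shown equals the highest concentration tested. Otherwise, values were interpolated linearly from a five-concentration, 48-hour dose response in 96-well plates. GI50 = concentration required for 50% inhibition of growth. The concentration for full growth arrest is given as TGI.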

Assay in all cases: NCI anticancer screen, dose series, 48 h
Test [1] deals with 786-0 renal.
Test [2] deals with CAKI-1 renal.
The subject of test [3] is COLO 205 colon.
Test [4] has as its system SK-MEL-2 melanoma.
The subject of test [5] is MOLT-4 leukemia.
Test [6] concerns SF-268 CNS.
The subject of test [7] is SK-OV-3 ovarian.
Test [8] relates to HOP-92 NSCLC.
The test system of test [9] is HS 578T breast.
Test [10] relates to T-47D breast.

In the case of `NC(=S)N1N=C2CCCCCC[C@@H]2[C@H]1c1ccccc1`, the TGI in [1], in test [2], in test [3], in test [4], in test [5] and in test [6] was over 100 µM each time. This compound also registered a TGI in test [7] of over 100 µM.

On to `O=[N+]([O-])c1nccn1CC(O)c1ccccc1` (stereo unspecified), for which the TGI in test [1], in [2], in test [3], in test [4], in test [5] and in [6] was over 100 µM in each case. Also, the TGI in test [7] and in test [8] was over 100 µM in each case.

`O=C1Nc2c(Cl)cc(Cl)cc2/C1=N/N=C/c1ccco1`: the TGI was over 100 µM in [1]; 72.8 µM in [2]; over 100 µM in test [9]; 73.3 µM in [3]; 57.1 µM in test [4]; over 100 µM in test [5]. Further, the TGI in test [7] and in test [8] was over 100 µM in each case.

Turning to `O=C(CC1(O)C(=O)Nc2c(Cl)cc(Cl)cc21)c1ccccc1` (stereo unspecified), the TGI in [1], in test [2], in test [3], in test [4], in [5] and in [6] was over 100 µM throughout. Moreover, the TGI in [7] and in [8] was over 100 µM throughout.

For `COC(=O)CCC(=O)Nc1ccc(Cl)cc1C`, the TGI in test [1], in test [2], in test [3], in [4], in [5] and in test [6] was over 100 µM each time. The TGI in test [7] and in [8] was over 100 µM each time.

`Nc1ncc(-c2ccc3ncnc(Nc4cccc(Cl)c4)c3c2)cn1`: the GI50 in test [1] was 0.339 µM and 1.78 µM; in test [2], 0.0346 µM; in test [6] it was 0.294 µM and 1.95 µM; in test [8], 0.00741 µM. Also, the TGI in test [1] was over 100 µM; in [6], over 100 µM; in [8], 0.0974 µM.

Turning to `CC(=O)OC12C(C)=C(C)C(=O)N1c1ccccc1N2C(C)=O` (stereo unspecified), the TGI in test [1], in [2], in [3], in test [4], in [5] and in test [6] was over 100 µM throughout. In addition, the TGI in test [7] and in test [8] was over 100 µM each time.

With `CSC(=NC(=O)c1ccccc1Cl)SCCSC(=NC(=O)c1ccccc1Cl)SC`, the TGI in test [1], in test [2], in [3], in [4], in test [5] and in test [6] was over 100 µM each time. In addition, the TGI in test [8] was over 100 µM.

As for `Cc1cccc(-c2nnc3s/c(=C\c4ccc(N(C)C)cc4)c(=O)n23)c1`, the TGI in test [1], in [2], in [3], in test [4], in test [5] and in test [6] was over 100 µM each time. The TGI in test [7] and in test [8] was over 100 µM throughout.

For `COc1ccc(CC(=O)NCCc2ccc(OC)c(OC)c2OC)cc1`, the TGI in test [1], in test [4], in test [5], in [6] and in test [7] was over 100 µM throughout.

For `O=C(C[n+]1ccccc1)N/N=C(/CCC(=O)N(Cc1ccccc1)Cc1ccccc1)CC(=O)c1ccccc1`, the TGI in test [1], in test [2], in [3], in [4], in test [5] and in test [6] was over 100 µM in each case. In addition, the TGI in test [8] was over 100 µM.

With `O=C1c2ccccc2-c2c3c(cc4ccnc1c24)OCO3`, the TGI is 27.2 µM and > 100 µM in [1]; 28.1 µM and 15.5 µM in test [2]; 82.5 µM and 16 µM in test [3]; 19.3 µM and 28.5 µM in test [4]; 15.6 µM and > 100 µM in [5]; 47.1 µM and > 100 µM in test [6]. The TGI in test [7] is 84.4 µM and > 100 µM; in [8], 39.9 µM and 37.1 µM.

Take `CC1=CCC2CC1C(C(=O)c1c[nH]c3ccccc13)=NC2(C)C` (stereo unspecified): the TGI in test [1] is over 100 µM; in [10] it was 99.2 µM; in test [2] it was over 100 µM; in [9], over 100 µM; in test [3], over 100 µM; in [5], over 100 µM. Also, the TGI in [6] and in [7] was over 100 µM throughout.

With `NC(=O)CC1OC(=O)Cc2cc3c(c(O)c21)C(=O)c1c(O)cccc1C3=O` (stereo unspecified), the TGI in test [1], in [10], in test [2], in [3], in test [4] and in test [5] was over 100 µM each time. Besides, the TGI in test [7] and in test [8] was over 100 µM in each case.

On to `COc1ccc(C(=O)C2CCC(C(=O)O)C2)cc1` (stereo unspecified), for which the TGI in test [1], in [2], in test [3], in test [4], in test [5] and in [7] was over 100 µM in each case. Besides, the TGI in test [8] was over 100 µM.

On to `O=S(=O)(N=C1C(Cl)=C(Cl)C(=NS(=O)(=O)c2ccccc2)C(Cl)=C1Cl)c1ccccc1`, for which the GI50 in test [1] is 22.7 µM; in test [10], 23.8 µM; in test [3], 23.9 µM; in test [4], 27.5 µM; in test [5], 27 µM; in [6], 16 µM. The GI50 in [7] was 43.2 µM; in test [8], 56.9 µM. The TGI was 44.1 µM in [1]; over 100 µM in [10]; 88.8 µM in test [3]; over 100 µM in test [4]; over 100 µM in [5]; 42.2 µM in test [6]. Moreover, the TGI in test [7] and in test [8] was over 100 µM throughout.

For the compound `CCOC(=O)C12CCCC1(O)N(NC(=O)OC)C(C)=C2C(=O)OC` (stereo unspecified), the TGI in test [1] is 92.2 µM; in test [2], over 100 µM; in [3] it was over 100 µM; in [4] it was 47.3 µM; in test [5] it was over 100 µM; in [6] it was over 100 µM. For the same compound, the TGI in test [7] and in test [8] was over 100 µM in each case.

(Values after PubChem BioAssay (NCI).)
